The values that follow come from patent EP0465913B1, “Diaminotrifluoromethylpyrimidine derivatives, process for their production and phospholipase A2 inhibitor containing them” (ISHIHARA SANGYO KAISHA, LTD., priority 1990, dated 1992).

Where “and” joins values, the source holds several entries; their conditions need not be identical. Identical values can stand only once. Counter-ions that a name gives are not always drawn. Like-named read-outs stand apart in the source and are kept apart here.

The target of data set [1] is T1, Porcine pancreatic phospholipase A2 (Sus scrofa, UniProt P00592).
T1 construct: purchased Boehringer Mannheim·Yamanouchi K.K. 161454·122416
T1 sequence (P00592 23-146): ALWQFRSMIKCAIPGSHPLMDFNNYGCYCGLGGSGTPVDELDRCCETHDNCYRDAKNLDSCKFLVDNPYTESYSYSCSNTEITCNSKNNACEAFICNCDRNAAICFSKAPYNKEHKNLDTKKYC
In words: Phospholipase A2 inhibitory activity, method A (egg yolk lecithin substrate). The class given is biochemical. The conditions noted are these: 1,000 ppm, 37°C for 30 minutes, read-out: % inhibition of PLA2 (1,000 ppm). Summed up:
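Egg yolk lecithin dispersed with glycerine, Triton X-100 and CaCl2 in 50 mM Tris-HCl pH7.5 was hydrolysed by enzyme (20 ng/ml solution) with compound, 37°C, 30 min. Released free fatty acid measured by ACS-ACOD method at 540 nm; apparent enzyme level read from a standard curve to give percent inhibition.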

Data set [2] can be described thus: Acute toxicity, intravenous injection (LD50). The format is in vivo. The following applies: mouse, in vivo, iv, ddy male mice, sodium salt, mortality over one week. The method, then:
Administration route: Intravenous injection
Using ddy male mice (body weight: 25 - 30 g), each test group consisted of 5 mice. A test compound was dissolved in the form of a sodium salt in a physiological saline or in a 5% glucose aqueous solution, and intravenously injected in an amount of 0.1 ml/10 g body weight. After the injection, the mortality rate was obtained over one week, and the median lethal dose LD50 (mg/kg) was determined.

Data set [3] deals with experimental acute pancreatitis model. The experiment in a line: Effects against acute pancreatitis (Test Example 7, closed duodenal loop method, gross pathological examination). The format is in vivo, Crj-CD male rats. Details: key to Pancreatic edema Distribution: -: No significant lesions; ± ∼ +++: Focal-diffuse; ± ∼ +++: Focal-diffuse; ± ∼ +++: Focal-diffuse; ± ∼ +++: Focal-diffuse; key to Pancreatic hemorrhage Petechia Grade / Pancreatic edema Grade: -: No significant lesions; ±: Minimal; +: Light; ++: Moderate; +++: Marked. The conditions noted are these: 40 mg per kg continuous intravenous injection, examination 3 hours after ventrotomy, individual rats. The method, then:
Using Crj-CD male rats (for Compound No. 19, rats having a body weight of from 371 to 484 g were used, and for Compound No. 10, rats having a body weight of from 444 to 574 g were used), each test group consisted of 3 rats. An experimental acute pancreatitis model was prepared by a closed duodenal loop method under anesthesia with halothane (manufactured by Hoechst Japan) and nitrous oxide (manufactured by Sumitomo Seika K.K.) applied by means of a general inhalation anesthesia machine (Model EM-2 and halothane evaporator F-Model). Then, Compound No. 19 or Compound No. 10 was continuously intravenously injected into the tail vein in an amount of 50 mg per kg or 40 mg per kg, respectively, at a rate of 0.05 ml per minute by means of a pump (Technicon AA II Proportioning Pump III, manufactured by Technicon Instruments Corporation). No injection was made to a control group. Gross pathological examination was conducted upon expiration of 6 hours after the ventrotomy in the case of the test group to which Compound No. 19 was administered, or upon expiration of 3 hours after the ventrotomy in the case of the test group to which Compound No. 10 was administered. As a result, as shown in the following Table 12, the groups to which the compounds of the present invention were administered, show distinct usefulness for treating acute pancreatitis.

For data set [4] the test system is unchanged. In words: Effects against acute pancreatitis (Test Example 8, closed duodenal loop method, lesion scores). The conditions noted are these: sodium salt, 6 hours after ventrotomy; for inhibition in vivo at 10 mg/kg: Rattus norvegicus, 10 mg/kg single intravenous injection. The class given is in vivo, Crj-CD male rats. Summed up:
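Closed duodenal loop pancreatitis in male Crj-CD rats (n=3) under halothane/nitrous oxide; sodium-salt compounds given i.v. into tail vein by continuous infusion or bolus, controls untreated. At 6 h, four pancreatic lesions scored 0-3; inhibition % of total and hemorrhagic scores calculated versus control.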

[5] abbreviates: 20 mg/kg continuous intravenous injection.
Where [6] appears, read: read-out: Inhibition rate of hemorrhagic lesions (%).
The mark [7] stands for this setting: read-out: Inhibition rate of pancreatitis lesions (%).

In general, inhibition refers to how much of the control response was suppressed. Usually LD50 stands for the dose at which mortality reaches 50%. Regarding `CS(=O)(=O)Nc1ncc(C(F)(F)F)cc1NC(=O)c1ccc(F)cc1` [Compound No. 10, N-(2-methylsulfonylamino-5-trifluoromethyl-3-pyridyl)-4-fluorobenzamide], the inhibition at 1000 ppm in data set [1] amounted to 60%. Moreover, in data set [2], the LD50 at 168 h fell in the range of 50 to 100 mg/kg. In data set [3], the “Pancreatic edema Distribution” value was “± and + (2×)”; the “Pancreatic edema Grade” value was “± and + and ††”; the “Pancreatic hemorrhage Petechia Grade” value was “± and - and +”.
As for `CCS(=O)(=O)Nc1ncc(C(F)(F)F)cc1NC(=O)C1CCCCC1` [Compound No. 47, N-(2-ethylsulfonylamino-5-trifluoromethyl-3-pyridyl)cyclohexanecarboxamide], the inhibition at 1000 ppm in data set [1] came to 75%. The LD50 at 168 h in data set [2] was found to be 58 mg/kg. In addition, in data set [4] (setting [5]), the “Inhibition rate of hemorrhagic lesions (%)” value (“Inhibition rate … (%)” below) is listed as 68%.
As for `CCS(=O)(=O)Nc1ncc(C(F)(F)F)cc1NC(=O)C1CCCCC1` [Compound No. 251, sodium salt of N-(2-ethylsulfonylamino-5-trifluoromethyl-3-pyridyl)cyclohexanecarboxamide], the inhibition in vivo at 10 mg/kg is 79% in data set [4] (setting [6]) and 80% in data set [4] (setting [7]).
In the case of `CS(=O)(=O)Nc1ncc(C(F)(F)F)cc1NC(=O)C(F)(F)C(F)(F)F` [compound 13], the inhibition at 1000 ppm in data set [1] was determined as 87%. For the same compound, the LD50 at 168 h in data set [2] was more than 70 mg/kg. For the same compound, in data set [4] (23 mg/kg continuous intravenous injection), the “Inhibition rate … (%)” value worked out at 100%.
Regarding `CS(=O)(=O)Nc1ncc(C(F)(F)F)cc1NC(=O)c1ccccc1` [compound 43], the inhibition at 1000 ppm in data set [1] came out at 47%. In data set [2], the LD50 at 168 h was 78 mg/kg. In data set [4] (setting [5]), the “Inhibition rate … (%)” value was 81%.
`CS(=O)(=O)Nc1ncc(C(F)(F)F)cc1NC(=O)C1CCCC1` [compound 45]: the inhibition at 1000 ppm in data set [1] stood at 50%. In addition, in data set [2], the LD50 at 168 h was 98 mg/kg. The “Inhibition rate … (%)” value in data set [4] (25 mg/kg continuous intravenous injection) turned out to be 62%.
`Cc1cccc(C(=O)Nc2cc(C(F)(F)F)cnc2NS(C)(=O)=O)c1` [compound 78]: in data set [2], the LD50 at 168 h is more than 60 mg/kg. For the same compound, the inhibition in vivo at 10 mg/kg in data set [4] (setting [6]) was determined as 96%; in data set [4] (setting [7]), 91%.
Consider `CS(=O)(=O)Nc1ncc(C(F)(F)F)cc1NC(=O)c1cccc(Cl)c1` [compound 79], for which the inhibition in vivo at 10 mg/kg in data set [4] (setting [6]) was found to be 23%; in data set [4] (setting [7]), 39%.
As to `CS(=O)(=O)Nc1ncc(C(F)(F)F)cc1NC(=O)c1cc2ccccc2s1` [compound 86], the LD50 at 168 h in data set [2] was more than 40 mg/kg. In addition, the inhibition in vivo at 10 mg/kg in data set [4] (setting [6]) was determined as 87%; in data set [4] (setting [7]), 85%.
In the case of `CS(=O)(=O)Nc1ncc(C(F)(F)F)cc1NC(=O)c1ccc2c(c1)CCC2` [compound 87], the LD50 at 168 h in data set [2] came out at 75 mg/kg. For the same compound, the inhibition in vivo at 10 mg/kg in data set [4] (setting [6]) was determined as 83%; in data set [4] (setting [7]) it was 87%.
As for `C/C=C/C(=O)Nc1cc(C(F)(F)F)cnc1NS(=O)(=O)CC` [compound 93, N-(2-ethylsulfonylamino-5-trifluoromethyl-3-pyridyl)crotonamide], the inhibition in vivo at 10 mg/kg in data set [4] (setting [6]) and in data set [4] (setting [7]) was 70% throughout.
Take `CCS(=O)(=O)Nc1ncc(C(F)(F)F)cc1NC(=O)C1CCCC1` [compound 94]: the inhibition in vivo at 10 mg/kg in data set [4] (setting [6]) and in data set [4] (setting [7]) was 11% throughout.
